In patent US6569903B2, “Ophthalmic compositions” (Rohto Pharmaceutical Co., Ltd., priority 1999, dated 2003):
Counter-ions that a name gives are not always drawn.

Columns and labels:
[1] = system: Japanese albino strain male rabbits; test: Tear protein secretion promoting action of eye drops (Test Example 2); assay type: in vivo, rabbit; conditions: 0.1 w/v % eye drops, 50 μl instilled into one eye, vs basal concentration
Procedure: Using Japanese albino strain male rabbits, eye drops containing adrenergic β receptor agonists were examined for their actions to promote the tear protein secretion.
Prior to use, each adrenergic β receptor agonist was dissolved in a phosphate buffer solution to prepare 0.1 w/v % solution, and adjusted to the pH ranging 6.0 to 7.5. Compounds and compositions of eye drops used in this experiment are shown below using the phosphate buffer solution as control.
Six rabbits (12 weeks old, weighing 2.0 to 2.5 kg) were used in each group. A test solution (50 μl) was instilled into one eye of the rabbit, and protein concentrations in tears were measured for 5 minutes from 15 to 10 min prior to the instillation of the test solution, for 5 minutes from 5 to 10 min and for 5 minutes from 20 to 25 min after the instillation, three times in total, using the following method. A local anesthetic, 0.4 w/v % oxybuprocaine hydrochloride solution (Santen Pharmaceutical) (50 μl) was instilled into one eye of the rabbit, 5 min later the remaining eye drops and tears were once soaked up using a water absorbing paper, and then a previously weighed filter paper (5×35 mm) was inserted in the lower eyelid area. Five minutes later, the filter paper was recovered, weighed and the increment in weight was taken as the amount of secreted tears. Immediately after measuring the amount of secreted tears, the filter paper thus recovered was placed in a 1.5-ml test tube, 1 ml of the phosphate buffer solution (pH 7.4) was added thereto, and the test tube was stirred for 30 s. After the removal of the filter paper followed by the centrifugation of the solution at 3,000 rpm for 5 min, a stain reagent of Bio-Rad protein assay kit was added to the supernatant to measure the amount of protein and calculate the total amount of protein in the filter paper. From the total amount of protein and that of secreted tears, the protein concentration in tears was calculated.
With the protein concentration in tears prior to the instillation of a test solution taken as a basal protein concentration, ratios of increases in respective protein concentrations relative to the basal protein concentration were used as the rate of increase in protein concentration in tears (%)

[2] = system: Japanese albino strain male rabbits; test: Tear secretion promoting action of eye drops (Test Example 1); assay type: in vivo, rabbit; conditions: 0.1 w/v % eye drops, 50 μl instilled into one eye, vs basal secretion amount
Procedure: Using Japanese albino strain male rabbits, eye drops containing adrenergic β receptor agonists were examined for their tear secretion promoting actions.
Prior to use, each adrenergic β receptor agonist was dissolved in a phosphate buffer solution to prepare a 0.1 w/v % solution, which was adjusted to the pH ranging 6.0 to 7.5. Compounds used in this experiment are shown below. The phosphate buffer solution served as control.
Six rabbits (12 weeks old, weighing 2.0 to 2.5 kg) were used in each group. A test solution (50 μl) was instilled into one eye of the rabbit, and amounts of tears secreted were measured for 5 minutes from 15 to 10 min prior to the instillation of the test solution, for 5 minutes from 5 to 10 min and for 5 minutes from 20 to 25 min after the instillation, three times in total, by the following method. A local anesthetic, 0.4 w/v % oxybuprocaine hydrochloride solution (Santen Pharmaceutical) (50 μl) was instilled into one eye of the rabbit, 5 min later the remaining eye drops and tears were once soaked up using a water absorbing paper, and then a previously weighed filter paper (5×35 mm) was inserted in the lower eyelid area. Five minutes later, the filter paper was recovered, weighed and the increment in weight was taken as the amount of secreted tears. With the amount of secreted tears prior to the instillation of a test solution taken as a basal secretion amount, ratios of increases in the amount of secreted tears to the basal secretion amount were used as the rate of increase in the tear secretion (%).

[3] = system: Japanese albino strain male rabbits; test: Protein concentration in tears after systemic (ear vein) administration (Test Example 3); assay type: in vivo, rabbit; conditions: for Rate of increase in protein concentration in tears (%): 50 μg/rabbit into the ear vein
Procedure: (§1) Using Japanese albino strain male rabbits, injections containing selective adrenergic β2 receptor agonists were examined for their actions to promote the tear secretion and the protein secretion in tears.
(§2) Prior to use, clenbuterol hydrochloride was dissolved in a physiological saline (concentration 50 μg/ml), and adjusted to the pH in the range 6.0 to 7.5. The physiological saline was used as control.
(§3) Six rabbits (11 to 12 weeks old, weighing 2.4 to 2.6 kg) were used in each group. The test solution (50 μg/rabbit) was administered into the ear vein, and amounts of tears secreted were measured 15 to 10 min prior to the administration of the test solution, 5 to 10 min, 20 to 25 min, 40 to 45 min, 60 to 65 min and 120 to 125 min after the administration, six times in total, by the following method. A local anesthetic, 0.4 w/v % oxybuprocaine hydrochloride solution (Santen Pharmaceutical) (50 μl) was instilled into one eye of a rabbit, 5 min later the remaining eye drops and tears were once soaked up using a water absorbing paper, and then a previously weighed filter paper (5×35 mm) was inserted in the lower eyelid area. Five minutes later, the filter paper was recovered, weighed and the increment in weight was taken as the amount of secreted tears. After measuring the amount of secreted tears, the filter paper thus recovered was placed in a 1.5-ml test tube, 1 ml of the phosphate buffer solution (pH 7.4) was added thereto, and the test tube was vortexed for 30 s. After the removal of the filter paper, followed by the centrifugation at 3,000 rpm for 5 min, a stain reagent of Bio-Rad protein assay kit was added to the supernatant to measure the amount of protein and calculate a total amount of protein in the filter paper. From the total amount of protein and that of secreted tears, the protein concentration in tears was calculated. With the amount of secreted tears prior to the administration of a test solution taken as the basal secretion amount, ratios of increases in the secreted tears to the basal secretion amount were used as the rate of increase in the tear secretion (%). In addition, with the protein concentration in tears prior to the administration of a test solution taken as the basal protein concentration, ratios of increases in respective protein concentrations relative to the basal protein concentration were used as the rate of increase in protein concentration in tears (%).

[4] = system: Japanese albino strain male rabbits; test: Tear secretion after systemic (ear vein) administration (Test Example 3); assay type: in vivo, rabbit; conditions: for Rate of increase in tear secretion (%): 50 μg/rabbit into the ear vein
Procedure: as §1, §2, §3

β2 adrenergic receptor = target: T1, β2 adrenergic receptor (Cavia porcellus, UniProt Q8K4Z4); conditions: cited from earlier work
T1 construct: a relaxation of smooth muscle (EC50) in an excised trachea or uterus; from tissue; host or cells: excised trachea (tracheal smooth muscle)
T1 sequence (Q8K4Z4 whole entry): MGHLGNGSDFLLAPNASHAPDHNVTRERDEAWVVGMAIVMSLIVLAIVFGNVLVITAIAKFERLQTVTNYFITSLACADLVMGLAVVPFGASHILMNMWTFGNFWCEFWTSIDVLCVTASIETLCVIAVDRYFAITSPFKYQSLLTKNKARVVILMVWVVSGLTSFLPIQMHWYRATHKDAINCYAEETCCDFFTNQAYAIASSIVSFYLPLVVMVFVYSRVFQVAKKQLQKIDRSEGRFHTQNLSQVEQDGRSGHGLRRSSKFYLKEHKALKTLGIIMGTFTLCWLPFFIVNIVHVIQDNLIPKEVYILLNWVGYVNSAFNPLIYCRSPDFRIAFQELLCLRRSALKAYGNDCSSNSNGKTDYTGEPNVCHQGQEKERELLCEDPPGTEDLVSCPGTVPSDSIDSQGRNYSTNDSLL

[5] = for 5 minutes from 5 to 10 min after instillation
[6] = for 5 minutes from 20 to 25 min after instillation
[7] = 120-125 min after administration
[8] = intravenous administration, result in words

| SMILES | Rate of increase in tear protein concentration [1, 5] | Rate of increase in tear protein concentration [1, 6] | Rate of increase in tear secretion [2, 5] | Rate of increase in tear secretion [2, 6] | Relative specificity to the tracheal smooth muscle, higher than that of isoproterenol (β2 adrenergic receptor) | further results |
| --- | --- | --- | --- | --- | --- | --- |
| CC(C)(C)NCC(O)c1cc(Cl)c(N)c(Cl)c1 (stereo not drawn) [Clenbuterol hydrochloride, clenbuterol hydrochloride] | 16% | 53% | 36% | 29% | about 7000 times | Rate of increase in protein concentration in tears (%) ([3]; 5-10 min after administration): 139%; Rate of increase in protein concentration in tears (%) ([3]; 20-25 min after administration): 148%; Rate of increase in protein concentration in tears (%) ([3]; 40-45 min after administration): 179%; Rate of increase in protein concentration in tears (%) ([3]; 60-65 min after administration): 188%; Rate of increase in protein concentration in tears (%) [3, 7]: 171%; Protein concentration in tears [3, 8]: significant increases; Rate of increase in tear secretion (%) ([4]; 5-10 min after administration): 155%; Rate of increase in tear secretion (%) ([4]; 20-25 min after administration): 146%; Rate of increase in tear secretion (%) ([4]; 40-45 min after administration): 133%; Rate of increase in tear secretion (%) ([4]; 60-65 min after administration): 68%; Rate of increase in tear secretion (%) [4, 7]: 58%; Amount of tear secretion [4, 8]: significant increases |
| CC(CCc1ccc(O)cc1)NCCc1ccc(O)c(O)c1 (stereo not drawn) [Dobutamine, dobutamine hydrochloride] | 9% | −19% | 8% | −29% |  |  |
| CC(Cc1ccc(O)cc1)NCC(O)c1cc(O)cc(O)c1 (stereo not drawn) [Fenoterol hydrobromide, fenoterol hydrobromide] | 16% | 43% | 144% | 49% | about 20 times |  |
| CCC(NC(C)C)C(O)c1ccc(O)c2[nH]c(=O)ccc12 (stereo not drawn) [Procaterol hydrochloride, procaterol hydrochloride] | 76% | 109% | 118% | 43% | about 2000 times |  |
| CC(C)(C)NCC(O)c1ccc(O)c(CO)n1 (stereo not drawn) [pirbuterol] |  |  |  |  | about 260 times |  |
| CC(C)(C)NCC(O)c1ccc(O)c(CO)c1 (stereo not drawn) [salbutamol] |  |  |  |  | about 30 times |  |
